Measured values from US20130288897A1, “SYNERGISTIC PESTICIDAL COMPOSITIONS” (Dow AgroSciences LLC, priority 2012, published 2013).
Values joined by “and” are separate entries in the source; they are usually repeats but may differ in a detail not shown here. Identical values can stand only once.

How the values were obtained:
Assay type in all cases: in vivo
[1] = tested on: cotton aphid (CA) Aphis gossypii; test: Cotton aphid track-sprayer test on cotton: Compound A or imidacloprid with Glyphomax Plus (glyphosate) and AMS (Example XV); conditions: Rep 1-5
Method: Glyphosate resistant cotton plants (Gossypium hirsutum, cv ‘DP493’) were trimmed to 1 true leaf and infested with mixed stages of cotton aphid (CA) Aphis gossypii 24 h prior to application. Mixed developmental stage CA were infested onto the upper surface of each treated leaf by transferring infested foliage from an insectary colony. Each plant was infested with approximately equal numbers of CA based on visual estimation of aphid density on the infested material. Infested plants were held in the growth chamber (L:D 16:8 and 25° C.). Glyphosate (Glyphomax Plus, Dow AgroSciences, LLC, Indianapolis, Ind.) was mixed with water at a rate equivalent to 32 oz/Ac/20 gallons. […] High rate Compound A concentrations were created by diluting Compound A technical material with acetone to achieve a 10 ppm solution. […] When applied through a track sprayer calibrated to 200 L/Ha these concentrations generated use rates of 0.2, 0.04 and 0.008 g/Ha. […] Nozzle height above the canopy was held constant at ca. 30 cm. Plants were evaluated after 3 days from the time of infestation by counting all live cotton aphids on each plant.
For the purposes of this experiment, the compositions having lower rates of the insecticide were not analyzed. Percent control for all treatments was calculated using the rep average for the untreated plants. […] For all tests, measured efficacy (% Control) data were compared to calculated Colby values (Colby, S. R. 1967. Calculating Synergistic and Antagonistic Responses of Herbicide Combinations. Weeds 15:20-22) using a 2 sided T-test (Minitab). […] The formula used to calculate the Colby value for mixtures of Compound A and either herbicide or AMS was:
The formula was adapted for compositions including Compound A, herbicide and AMS as follows: […]

[2] = tested on: cotton aphid (CA) Aphis gossypii; test: Cotton aphid track-sprayer test on cotton: Compound A with glufosinate (Liberty) and AMS, rates 0.4, 0.1 and 0.025 g/Ha (Example XVIII)
Method: (§1) Glyphosate resistant cotton plants (Gossypium hirsutum, cv ‘DP493’) were trimmed to 1 true leaf and infested with mixed stages of cotton aphid (CA) Aphis gossypii 24 hours prior to application. Mixed developmental stage CA were infested onto the upper surface of each treated leaf by transferring infested foliage from an insectary colony. Each plant was infested with approximately equal numbers of CA based on visual estimation of aphid density on the infested material. Infested plants were held in the growth chamber (L:D 16:8 and 25° C.). Glufosinate (Liberty®, Bayer CropScience, Monheim am Rhein, Germany) was mixed with water at a rate equivalent to 5 ml/L (0.4 qt/Ac). […] High rate Compound A concentrations were created by diluting Compound A technical material with acetone to achieve a 20 ppm solution. […] […] […] Nozzle height above the canopy was held constant at ca. 30 cm. Plants were evaluated after 3 days from the time of infestation by counting all live cotton aphids on each plant.

[3] = tested on: cotton aphid (CA) Aphis gossypii; test: Cotton aphid track-sprayer test on cotton: Compound A or imidacloprid with Durango (glyphosate) or Durango Blank and AMS (Example XVI); conditions: for % Control (Negatives to zero) Ave / % control Ave / Colbv predicted values Ave: average of 5 reps
Method: as §1, with “24 h” for “24 hours”, “C.). Glyphosate (Durango®, Dow AgroSciences, LLC, Indianapolis, Ind.)” for “C.). Glufosinate (Liberty®, Bayer CropScience, Monheim am Rhein, Germany)”, “to 15” for “to 5”, “ml/L (1.2” for “ml/L (0.4”, “qt/Ac). […] A glyphosate free formulation of Durango® was prepared using these same mixing instructions.” for “qt/Ac).”, “a 10” for “a 20”
[…] Percent control for all treatments was calculated using the rep average for the untreated plants.

[4] = 0.2 g insecticide/Ha with Glyphomax Plus 0.0125 ml/ml + AMS 18 mg/ml
[5] = 0.2 g insecticide/Ha with Glyphomax Plus 0.0125 ml/ml
[6] = 0.025 g In./HA + Lib. 0.005 ml/ml
[7] = 0.025 g In./HA + Lib. 0.005 ml/ml + AMS 18 g/L
[8] = 0.1 g In./HA + Lib. 0.005 ml/ml
[9] = 0.1 g In./HA + Lib. 0.005 ml/ml + AMS 18 g/L
[10] = 0.4 g In./HA + Lib. 0.005 ml/ml
[11] = 0.4 g In./HA + Lib. 0.005 ml/ml + AMS 18 g/L
[12] = Rep 1-6, 0.1 g In./HA + Lib. 0.005 ml/ml
[13] = Rep 1-6, 0.1 g In./HA + Lib. 0.005 ml/ml + AMS 18 g/L
[14] = Rep 1-6, 0.4 g In./HA + Lib. 0.005 ml/ml
[15] = Rep 1-6, 0.4 g In./HA + Lib. 0.005 ml/ml + AMS 18 g/L
[16] = 0.0125 g insecticide/Ha with Durango 0.015 ml/ml + AMS 18 g/L
[17] = 0.0125 g insecticide/Ha with Durango 0.015 ml/ml
[18] = 0.0125 g insecticide/Ha with Durango Blank 0.015 ml/ml + AMS 18 g/L
[19] = 0.0125 g insecticide/Ha with Durango Blank 0.015 ml/ml
[20] = 0.05 g insecticide/Ha with Durango 0.015 ml/ml + AMS 18 g/L, Rep 1-5
[21] = 0.05 g insecticide/Ha with Durango 0.015 ml/ml + AMS 18 g/L
[22] = 0.05 g insecticide/Ha with Durango 0.015 ml/ml
[23] = 0.05 g insecticide/Ha with Durango Blank 0.015 ml/ml + AMS 18 g/L
[24] = 0.05 g insecticide/Ha with Durango Blank 0.015 ml/ml
[25] = 0.2 g insecticide/Ha with Durango 0.015 ml/ml + AMS 18 g/L, Rep 1-5
[26] = 0.2 g insecticide/Ha with Durango 0.015 ml/ml + AMS 18 g/L
[27] = 0.2 g insecticide/Ha with Durango 0.015 ml/ml, Rep 1-5
[28] = 0.2 g insecticide/Ha with Durango 0.015 ml/ml
[29] = 0.2 g insecticide/Ha with Durango Blank 0.015 ml/ml + AMS 18 g/L, Rep 1-5
[30] = 0.2 g insecticide/Ha with Durango Blank 0.015 ml/ml + AMS 18 g/L
[31] = 0.2 g insecticide/Ha with Durango Blank 0.015 ml/ml

## CC(c1ccc(C(F)(F)F)nc1)S(C)(=O)=NC#N (stereo not drawn) [Compound A, [1-(6-Trifluoromethylpyridin-3-yl)ethyl](methyl)-oxido-λ^4-sulfanylidenecyanamide]
[1]; [4]
  % control Negatives to zero: 94.9% and 100.0%
  Calculated Colby values: 71.7 and 78.5 and 75.1 and 77.5 and 71.8
  percent control: 100.0% and 94.9%
[1]; [5]
  % control Negatives to zero: 96.2% and 100.0% and 91.7% and 98.1%
  percent control: 100.0% and 91.7% and 98.1% and 96.2%
[1]; 0.2 g insecticide/Ha with Glyphomax Plus 0.0125 ml/ml, expected additive control
  Calculated Colby values: 71.7 and 78.5 and 75.1 and 75.3 and 69.3
[1]; 0.2 g insecticide/Ha, no herbicide, no AMS, live aphids per plant after 3 days
  CA Counts: 24 and 20 and 12 and 15 and 13
[1]; 0.2 g insecticide/Ha, no herbicide, no AMS, vs rep average of untreated plants
  percent control: 71.7% and 78.5% and 75.1% and 75.3% and 69.3%
[2]; [6]
  % Control (Negatives to zero) Ave: 54.2%
  Colby Predicted Values Ave: 56.8
[2]; [7]
  % Control (Negatives to zero) Ave: 85.6%
  Colby Predicted Values Ave: 62.5
[2]; [8]
  % Control (Negatives to zero) Ave: 76.7%
  Colby Predicted Values Ave: 72.4
[2]; [9]
  % Control (Negatives to zero) Ave: 89.7%
  Colby Predicted Values Ave: 76.7
[2]; 0.1 g In./HA, no Lib., no AMS
  % Control (Negatives to zero) Ave: 62.1%
[2]; [10]
  % Control (Negatives to zero) Ave: 99.0%
  Colby Predicted Values Ave: 98.2
[2]; [11]
  % Control (Negatives to zero) Ave: 98.2%
  Colby Predicted Values Ave: 98.4
[2]; 0.4 g In./HA, no Lib., no AMS
  % Control (Negatives to zero) Ave: 97.3%
[2]; 0025 g In./HA, no Lib., no AMS
  % Control (Negatives to zero) Ave: 39.5%
[2]; Rep 1-6, 0.025 g In./HA + Lib. 0.005 ml/ml + AMS 18 g/L
  % control Negatives to zero: 70.0% and 95.4% and 97.0% and 89.1% and 65.9% and 96.2%
[2]; Rep 1-6, 0.025 g In./Ha, no Liberty, no AMS
  CA Counts: 198 and 126 and 194 and 117 and 231 and 212
[2]; [12]
  % control Negatives to zero: 58.2% and 79.2% and 98.0% and 58.5% and 82.6% and 84.0%
  Colby Predicted Values: 74.4 and 70.0 and 71.8 and 78.3 and 93.2 and 46.6
[2]; [13]
  % control Negatives to zero: 95.2% and 89.4% and 91.2% and 81.2% and 99.0% and 81.9%
  Colby Predicted Values: 81.3 and 73.3 and 73.7 and 78.5 and 93.8 and 59.6
[2]; Rep 1-6, 0.1 g In./HA, no Lib., no AMS
  % control Negatives to zero: 65.2% and 70.0% and 54.2% and 73.5% and 70.9% and 38.7%
[2]; [14]
  % control Negatives to zero: 97.8% and 100.0% and 99.0% and 98.4% and 98.7%
  Colby Predicted Values: 99.3 and 97.9 and 96.6 and 99.2 and 97.3
[2]; [15]
  % control Negatives to zero: 98.2% and 100.0% and 98.3% and 92.7%
  Colby Predicted Values: 99.0 and 99.4 and 98.1 and 96.6 and 99.3 and 97.9
[2]; Rep 1-6, 0.4 g In./HA, no Lib., no AMS
  % control Negatives to zero: 98.2% and 99.3% and 96.6% and 95.8% and 96.7% and 96.9%
[3]; [16]
  % Control (Negatives to zero) Ave: 23.8%
  % control Ave: 11.7%
  Colbv predicted values Ave: 48.0
[3]; [17]
  % Control (Negatives to zero) Ave: 17.4%
  % control Ave: 0.5%
  Colbv predicted values Ave: 36.6
[3]; [18]
  % Control (Negatives to zero) Ave: 26.5%
  % control Ave: 25.1%
  Colbv predicted values Ave: 56.2
[3]; [19]
  % Control (Negatives to zero) Ave: 15.8%
  % control Ave: −22.7%
  Colbv predicted values Ave: 36.6
[3]; 0.0125 g insecticide/Ha, no herbicide, no AMS
  % control Ave: 5.5%
[3]; [20]
  % control: 68.6% and 52.3% and 68.2% and 65.8% and 35.3%
  % control Negatives to zero: 68.6% and 52.3% and 68.2% and 65.8% and 35.3%
  CA Counts: 37 and 49 and 36 and 25 and 48
[3]; [21]
  % Control (Negatives to zero) Ave: 58.0%
  % control Ave: 58.0%
  Colbv predicted values Ave: 55.3
[3]; [22]
  % Control (Negatives to zero) Ave: 14.2%
  % control Ave: 9.1%
  Colbv predicted values Ave: 45.2
[3]; [23]
  % Control (Negatives to zero) Ave: 37.9%
  % control Ave: 35.5%
  Colbv predicted values Ave: 56.9
[3]; [24]
  % Control (Negatives to zero) Ave: 36.1%
  % control Ave: 36.1%
  Colbv predicted values Ave: 43.6
[3]; 0.05 g insecticide/Ha, no herbicide, no AMS
  % control Ave: 31.8%
[3]; [25]
  % control: 97.5% and 100.0%
  % control Negatives to zero: 97.5% and 100.0%
[3]; [26]
  % Control (Negatives to zero) Ave: 99.5%
  % control Ave: 99.5%
  Colbv predicted values Ave: 72.8
[3]; [27]
  % control: 89.8% and 96.1% and 76.1% and 91.8% and 96.0%
  % control Negatives to zero: 89.8% and 96.1% and 76.1% and 91.8% and 96.0%
[3]; [28]
  % Control (Negatives to zero) Ave: 90.0%
  % control Ave: 90.0%
  Colbv predicted values Ave: 70.5
[3]; [29]
  % control: 66.9% and 97.1% and 76.1% and 79.5% and 74.4%
  % control Negatives to zero: 68.9% and 97.1% and 76.1% and 79.5% and 74.4%
  Colbv predicted values: 97.5 and 77.2 and 97.3 and 72.7 and 71.7
[3]; [30]
  % Control (Negatives to zero) Ave: 78.8%
  % control Ave: 78.8%
  Colbv predicted values Ave: 83.3
[3]; [31]
  % Control (Negatives to zero) Ave: 60.1%
  % control Ave: 60.1%
  Colbv predicted values Ave: 71.5
[3]; 0.2 g insecticide/Ha, no herbicide, no AMS
  % control Ave: 50.2%
